Data from patent publication US20200115667A1, “VASCULARIZED MICROFLUIDIC PLATFORMS” (BOARD OF REGENTS, THE UNIVERSITY OF TEXAS SYSTEM, priority 2017, published 2020).
Where two headings read alike, the source gives them in different places.

Assays:
[1] = system: TIME monoculture endothelium; experiment: Porosity of vasculature (vessel confluence, confocal); format: cell-based, human; details: 20 ng/ml perfused 24 hours
Experimental: After embedding cells in collagen and successfully preconditioning endothelialized channels for 72 hours to establish a confluent, aligned endothelium, the effect of different co-culture conditions on the vessel confluence was studied as shown in FIG. 20.
To create a fully functional aligned endothelium along each channel within each compartment, TIME cell suspension in media (10×10^6 cells/ml) was introduced in the channel and underwent flow preconditioning for 3 days. Within the first 36 hours, wall shear stress was maintained at 0.01 dyn/cm^2 and followed with a linear increase of wall shear stress to 0.1 dyn/cm^2 for 1 hour and maintained at this value for the next 36 hours. […] For positive control samples, 20 ng/ml Tumor Necrosis Factor Alpha (TNFα, RnD Systems, MN) was perfused at 0.1 dyn/cm^2 for 24 hours after the preconditioning protocol before transport studies. To provide flow into the microfluidic platform, 0.5″ long 22G stainless steel needles were inserted though PDMS ports and partially into the collagen microchannels. Autoclaved Tygon silicon tubing ( 1/16″ ID, Saint Global, France) was connected to the inlet needle and a bubble trap, which is connected to a syringe pump that controls the flow rate. […]
Therefore, endothelial porosity was determined using fluorescence microscopy images of mKate tagged endothelial cells.

[2] = system: endothelial lumen of C3Asub28/TIME, MDA-MB-231/TIME, THLE-3/TIME microenvironments; experiment: Vessel permeability of multi tissue-on-a-chip microenvironments; format: cell-based, human; details: TNFα treated TIME monoculture vs TIME monoculture, this study
Experimental: Transport measurements of varying particle sizes in the multi tissue-on-a-chip microenvironment were conducted for two different scenarios: single microenvironment analysis and microenvironments connected in series to investigate the influence of their interactions and interdependent transport kinetics. When considering only a single microenvironment transport, particles were delivered through the vessel of the microenvironment of interest and transport through the vessel and into the surrounding ECM was measured subsequently and spatially. In these tests, 5 different platform configurations was used: acellular with no cells in the ECM and no cells in the vessel, TIME monoculture consisting only endothelial cells lining the vessel without cells in the ECM, and then vascularized microenvironments denoted as cells in the ECM/cells in the vessel: MDA-MB-231/TIME, C3Asub28/TIME, and THLE-3/TIME microenvironments. […]
Therefore, endothelial porosity was determined using fluorescence microscopy images of mKate tagged endothelial cells. […] The effect of vessel and ECM porosities and particle size on transport were quantified using two methods, permeability coefficient and intensity profiles of the particles in the vessel and ECM. […] Obtained images were exported to Matlab to quantify intensity readings at each time step. For the first method, permeability coefficient was calculated using Equation 8

[3] = system: endothelial lumen of C3Asub28/TIME, MDA-MB-231/TIME, THLE-3/TIME microenvironments; details: reported by Zervantonakis et al.; cited from earlier work

Tumor Necrosis Factor Alpha [TNFα]
effect on vessel compared to Control − [1]: caused vessel permeabilization with significant pore openings
fold change of permeability between Control − and Control + [2]: 1.59±0.13
fold change of permeability between Control − and Control + [3]: 1.79±0.27
